For 14 molecules, IC50 and Kd results are on record in patent US11634447B2 (priority 2012, dated 2023).

Assay [1] deals with bacterial strain LF82 binding to the glycoprotein BSA-(Mannose)3. The assay is described as follows: Bacterial Binding Assay (BBA). The format is cell-based, Escherichia coli. The settings on record: read-out: Bacterial Binding Assay IC50, LF82/Luciferase strain binding to BSA-(Man)3 coated plates, luminescence. A digest of the protocol:
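Inhibition of LF82/luciferase E. coli adhesion is read as luminescence after washing off unbound cells. Compound and bacteria (10^7 per well) are co-incubated 40-75 min at room temperature on wells coated with 0.5-2 μg/mL BSA-(Man)3, with BSA-only wells as background; IC50 values derived.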

Assay [2] has as its target T1, FimH-CRD (Escherichia coli, UniProt P08191).
T1 construct: The first 177 amino acids of the FimH protein are expressed as a fusion protein; thrombin tag (printed as 'fusion protein with thrombin') (cleaved yes); made in house; host or cells: bacteria (pET21b plasmid)
The assay is described as follows: Competitive binding assay by fluorescence polarization, assay 2 (compounds prepared by a robotics system, plates frozen and thawed). More on the design: species or system E. coli. As to the method:
(§1) The first 177 amino acids of the FimH protein are expressed as a fusion protein with thrombin in a pET21b plasmid in bacteria. This FimH protein sequence contains the carbohydrate recognition domain (CRD) and shall be termed FimH-CRD. Following bacterial expression of the protein, the FimH-CRD protein is purified to homogeneity and the thrombin tag removed by protease cleavage. A competitive binding assay by fluorescence polarization is performed using 5 nM of the Alexa 647 mannoside probe and 60 nM of the FimH-CRD. The samples are assayed in a low volume 384 well microtiter plate in a final volume of 20 μl. The final assay buffer conditions are the following, 50 mM Tris-Cl, ph 7.0, 100 mM NaCl, 1 mM EDTA, 5 mM β-mercaptoethanol, 0.05% BSA and 2.5% DMSO. Two assays are performed for FimH, termed assay 1 or assay 2. The assay conditions are the same for both assays except the following: assay 1 has compounds prepared by manual dilution in a serial dilution factor with 12-point dose response while assay 2 has compounds prepared by a robotics system also through a serial dilution factor (12 point dose response) and initially prepared in duplicate in 384 well-Corning polypropylene round bottom plates. The assay 2 plates have compound which is then frozen and must be thawed prior to use. Initially the Alexa 647 probe and the FimH-CRD are added to the assay buffer and then 0.5 μl of test compound (assay 1 or 2) between 0.4 nM to 75 μM final concentration are added (12 point titration with 3-fold serial dilution). Control wells for the Alexa 647 probe are prepared with the same conditions except for the addition of the FimH-CRD protein. Plates are then incubated for 5 hrs at room temperature in the dark and under humid conditions to prevent drying. Plates are read using the SpectraMax Paradigm multi-mode plate reader and the appropriate fluorescent polarization detection cartridge (Alexa-647).
(§2) Alexa 647 mannoside probe is prepared using the similar procedure reported for FAM mannoside (Han, Z. et. al., 2010, J. Med. Chem., 53, 4779) and is described in the scheme below.
(§3) To a blue colored stirred solution of (2S,3S,4S,5S,6R)-2-(4-aminobutoxy)-6-(hydroxymethyl)tetrahydropyran-3,4,5-triol (2.21 mg, 0.009 mmol) and the (2E)-2-[(2E,4E)-5-[3,3-dimethyl-5-sulfonato-1-(3-sulfonatopropyl)indol-1-ium-2-yl]penta-2,4-dienylidene]-3-[6-(2,5-dioxopyrrolidin-1-yl)oxy-6-oxo-hexyl]-3-methyl-1-(3-sulfonatopropyl)indoline-5-sulfonate (Potassium Ion (3)) (4.9 mg, 0.0044 mmol) in DMF (44 μL) is added Et3N (5.4 mg, 7.0 μL, 0.053 mmol) at RT. The solution is stirred at room temperature over night, concentrated, dissolved in water and purified on 12 g C-18 silica gel cartridge on Isolera system using acetonitrile in water (0 to 40%, 10 CV) and followed by lyophilization to afford Alexa 647 mannoside probe (3.3 mg, 34%) as deep blue solid.
(§4) The Kd values of the compounds are determined from dose response curves using twelve concentrations per compound in duplicate. Curves are fitted to data points using Fluorescence Polarization competitive displacement analysis, and Kds are interpolated from the resulting curves using GraphPad Prism software, version […] (GraphPad software Inc., San Diego, Calif., USA).
Background: In fluorescence polarisation assays a small probe gives low polarisation when free and higher when bound to something large.

In assay [3] the target is T1, FimH-CRD. Nature of the assay: Competitive binding assay by fluorescence polarization, assay 1 (compounds prepared by manual dilution). More on the design: species or system E. coli. How it is done:
as §1, §2, §3, §4

Where [4] appears, read: Assay 2 Kd, 5 nM Alexa 647 mannoside probe, 60 nM FimH-CRD, replicate values in one cell.
Setting [5] is: read-out: Assay 2 Kd, 5 nM Alexa 647 mannoside probe, 60 nM FimH-CRD, replicate values in one cell.

“And” between values parts separate entries of the source, which are not always exact repeats. Equal values may be shown once.

T1 sequence (P08191 22-177): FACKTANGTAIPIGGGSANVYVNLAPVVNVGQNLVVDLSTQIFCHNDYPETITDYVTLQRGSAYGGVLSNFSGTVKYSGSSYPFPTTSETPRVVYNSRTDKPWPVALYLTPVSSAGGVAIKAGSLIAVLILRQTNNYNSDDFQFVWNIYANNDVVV

Usually Kd stands for the constant that tells how readily two partners part at equilibrium. For the molecule `OC[C@H]1O[C@H](C#Cc2ccc3cc(C#C[C@H]4O[C@H](CO)[C@@H](O)[C@H](O)[C@@H]4O)ccc3c2)[C@@H](O)[C@@H](O)[C@@H]1O` [Compound 59, (2R,3S,4R,5S,6R)-2-(Hydroxymethyl)-6-[2-[6-[2-[(2R,3S,4R,5S,6R)-3,4,5-trihydroxy-6-(hydroxymethyl)tetrahydropyran-2-yl]ethynyl]-2-naphthyl]ethynyl]tetrahydropyran-3,4,5-triol], the IC50 in assay [1] came out at 8.2 nM. Besides, the Kd at FimH-CRD [2] (setting [4]) and at FimH-CRD [2] (setting [5]) was < 5 nM each time.
As for `OC[C@H]1O[C@H](C/C=C/c2ccc(C#C[C@H]3O[C@H](CO)[C@@H](O)[C@H](O)[C@@H]3O)cc2)[C@@H](O)[C@@H](O)[C@@H]1O` [Compound 55, (2R,3S,4R,5S,6R)-2-(Hydroxymethyl)-6-[(E)-3-[4-[2-[(2R,3S,4R,5S,6R)-3,4,5-trihydroxy-6-(hydroxymethyl)tetrahydropyran-2-yl]ethynyl]phenyl]allyl]tetrahydropyran-3,4,5-triol], the IC50 in assay [1] was 210 nM. The Kd at FimH-CRD [2] (setting [4]) is < 5 nM and 5 nM.
For `O=C(C[C@H]1O[C@H](CO)[C@@H](O)[C@H](O)[C@@H]1O)NCc1ccc(CNC(=O)C[C@H]2O[C@H](CO)[C@@H](O)[C@H](O)[C@@H]2O)cc1` [Compound 49, (2-[(2R,3S,4R,5S,6R)-3,4,5-Trihydroxy-6-(hydroxymethyl)tetrahydropyran-2-yl]-N-[[4-[[[2-[(2R,3S,4R,5S,6R)-3,4,5-trihydroxy-6-(hydroxymethyl)tetrahydropyran-2-yl]acetyl]amino]methyl]phenyl]methyl]acetamide)], on FimH-CRD [2] (setting [4]), the Kd was 149 nM and 87 nM.
The same measure, in the same setting: to `OC[C@H]1O[C@H](c2csc([C@H]3O[C@H](CO)[C@@H](O)[C@H](O)[C@@H]3O)c2)[C@@H](O)[C@@H](O)[C@@H]1O` [Compound 47, ((2R,3S,4R,5S,6R)-2-(Hydroxymethyl)-6-[5-[(2S,3S,4S,5S,6R)-3,4,5-trihydroxy-6-(hydroxymethyl)tetrahydropyran-2-yl]-3-thienyl]tetrahydropyran-3,4,5-triol)] belongs 44 nM and 37 nM and 51 nM and 36 nM.
Regarding `OC[C@H]1O[C@H](c2cccc(CCCCc3cccc([C@H]4O[C@H](CO)[C@@H](O)[C@H](O)[C@@H]4O)c3)c2)[C@@H](O)[C@@H](O)[C@@H]1O` [Compound 52, ((2R,3S,4R,5S,6R)-2-(Hydroxymethyl)-6-[3-[4-[3-[(2R,3S,4R,5S,6R)-3,4,5-trihydroxy-6-(hydroxymethyl)tetrahydropyran-2-yl]phenyl]butyl]phenyl]tetrahydropyran-3,4,5-triol)], the IC50 in assay [1] is 660 nM. The Kd on FimH-CRD [2] (setting [4]) and on FimH-CRD [2] (setting [5]) was < 5 nM each time.
Regarding `OC[C@H]1O[C@H](C#Cc2cccc3c(C#C[C@H]4O[C@H](CO)[C@@H](O)[C@H](O)[C@@H]4O)cccc23)[C@@H](O)[C@@H](O)[C@@H]1O` [Compound 60, (2R,3S,4R,5S,6R)-2-(Hydroxymethyl)-6-[2-[5-[2-[(2R,3S,4R,5S,6R)-3,4,5-trihydroxy-6-(hydroxymethyl)tetrahydropyran-2-yl]ethynyl]-1-naphthyl]ethynyl]tetrahydropyran-3,4,5-triol], the IC50 in assay [1] worked out at 13 nM. Further, the Kd on FimH-CRD [2] (setting [4]) and on FimH-CRD [2] (setting [5]) was < 5 nM throughout.
Consider `OC[C@H]1O[C@H](C#Cc2cccc(C#C[C@H]3O[C@H](CO)[C@@H](O)[C@H](O)[C@@H]3O)c2)[C@@H](O)[C@@H](O)[C@@H]1O` [Compound 57, (2R,3S,4R,5S,6R)-2-(Hydroxymethyl)-6-[2-[3-[2-[(2R,3S,4R,5S,6R)-3,4,5-trihydroxy-6-(hydroxymethyl)tetrahydropyran-2-yl]ethynyl]phenyl]ethynyl]tetrahydropyran-3,4,5-triol], for which the IC50 in assay [1] was found to be 27 nM. Further, the Kd on FimH-CRD [2] (setting [4]) and at FimH-CRD [2] (setting [5]) was < 5 nM each time.
For the molecule `OC[C@H]1O[C@H](c2cccc(C#CC#Cc3cccc([C@H]4O[C@H](CO)[C@@H](O)[C@H](O)[C@@H]4O)c3)c2)[C@@H](O)[C@@H](O)[C@@H]1O` [Compound 50, ((2R,3S,4R,5S,6R)-2-(Hydroxymethyl)-6-[3-[4-[3-[(2R,3S,4R,5S,6R)-3,4,5-trihydroxy-6-(hydroxymethyl)tetrahydropyran-2-yl]phenyl]buta-1,3-diynyl]phenyl]tetrahydropyran-3,4,5-triol)], the IC50 in assay [1] is 950 nM. For the same molecule, the Kd on FimH-CRD [2] (setting [4]) is 9 nM and < 5 nM (2×).
On to `OC[C@H]1O[C@H](c2ccc3cc(C#C[C@H]4O[C@H](CO)[C@@H](O)[C@H](O)[C@@H]4O)ccc3c2)[C@@H](O)[C@@H](O)[C@@H]1O` [Compound 56, (2R,3S,4R,5S,6R)-2-(Hydroxymethyl)-6-[2-[6-[(2R,3S,4R,5S,6R)-3,4,5-trihydroxy-6-(hydroxymethyl)tetrahydropyran-2-yl]-2-naphthyl]ethynyl]tetrahydropyran-3,4,5-triol], for which the IC50 in assay [1] is 20 nM. The Kd on FimH-CRD [2] (setting [4]) and on FimH-CRD [2] (setting [5]) was < 5 nM throughout.
Turning to `O=C(Nc1cccc([C@H]2O[C@H](CO)[C@@H](O)[C@H](O)[C@@H]2O)c1)Nc1cccc([C@H]2O[C@H](CO)[C@@H](O)[C@H](O)[C@@H]2O)c1` [Compound 51, (1,3-Bis(3-((2R,3S,4R,5S,6R)-3,4,5-trihydroxy-6-(hydroxymethyl)tetrahydro-2H-pyran-2-yl)phenyl)urea)], the IC50 in assay [1] was 830 nM. The Kd at FimH-CRD [2] (setting [4]) is 15 nM and < 5 nM.
Regarding `OC[C@H]1O[C@H](c2ccc([C@H]3O[C@H](CO)[C@@H](O)[C@H](O)[C@@H]3O)s2)[C@@H](O)[C@@H](O)[C@@H]1O` [Compound 46, ((2R,3S,4S,5S,6S)-2-(Hydroxymethyl)-6-[5-[(2S,3S,4S,5S,6R)-3,4,5-trihydroxy-6-(hydroxymethyl)tetrahydropyran-2-yl]-2-thienyl]tetrahydropyran-3,4,5-triol)], the Kd at FimH-CRD [2] (setting [4]) was 11 nM and 9 nM and 16 nM and 14 nM.
Still for that read-out and setting: to `O=C(C[C@H]1O[C@H](CO)[C@@H](O)[C@H](O)[C@@H]1O)Nc1cccc(NC(=O)C[C@H]2O[C@H](CO)[C@@H](O)[C@H](O)[C@@H]2O)c1` [Compound 48, (2-[(2R,3S,4R,5S,6R)-3,4,5-Trihydroxy-6-(hydroxymethyl)tetrahydropyran-2-yl]-N-[3-[[2-[(2R,3S,4R,5S,6R)-3,4,5-trihydroxy-6-(hydroxymethyl)tetrahydropyran-2-yl]acetyl]amino]phenyl]acetamide)] belongs 79 nM and 50 nM and 63 nM.
Consider `CC(=O)N[C@@H]1[C@@H](O)[C@H](O)[C@@H](CO)O[C@H]1n1cc([C@H]2O[C@H](CO)[C@@H](O)[C@H](O)[C@@H]2O)nn1` [Compound 45, (N-[(2R,3R,4R,5S,6R)-4,5-Dihydroxy-6-(hydroxymethyl)-2-[4-[(2R,3S,4R,5S,6R)-3,4,5-trihydroxy-6-(hydroxymethyl)tetrahydropyran-2-yl]triazol-1-yl]tetrahydropyran-3-yl]acetamide)], for which, on FimH-CRD [2] (setting [4]), the Kd was 707 nM and 576 nM and 558 nM and 591 nM.
As to `O=[N+]([O-])c1cc(/C=C/C[C@H]2O[C@H](CO)[C@@H](O)[C@H](O)[C@@H]2O)ccc1/C=C/C[C@H]1O[C@H](CO)[C@@H](O)[C@H](O)[C@@H]1O` [Compound 32, ((2R,3S,4R,5S,6R)-2-(Hydroxymethyl)-6-[(E)-3-[3-nitro-4-[(E)-3-[(2R,3S,4R,5S,6R)-3,4,5-trihydroxy-6-(hydroxymethyl)tetrahydropyran-2-yl]prop-1-enyl]phenyl]allyl]tetrahydropyran-3,4,5-triol)], in assay [1], the IC50 came out at 340 nM. The Kd at FimH-CRD [3] (Assay 1 Kd, 5 nM Alexa 647 mannoside probe, 60 nM FimH-CRD, replicate values in one cell) was < 5 nM; on FimH-CRD [3] (read-out: Assay 1 Kd, 5 nM Alexa 647 mannoside probe, 60 nM FimH-CRD, replicate values in one cell), < 5 nM.
